The series is described as follows: Solubility as a function of pH in buffers without and with 15% HPBCD. The series is classed as physicochemical. The settings on record: thermodynamic from solid. As for the experimental part: Buffers were prepared to cover a pH range of 2 to 7. Approximately 5 to 10 milligrams of drug was weighed into an HPLC vial to which 1.00 mL of the appropriate buffer was added. The solutions were vortexed briefly and were then shaken for five days on an orbital shaker. The prolonged shaking was carried out because slow equilibration had been observed during the initial formulation studies with different salt forms of MN-029.
Buffers with 15% HPBCD were prepared from the previous buffers. One and a half grams of HPBCD was weighed into each of several 10 mL volumetric flasks. HPBCD was dissolved in and diluted to volume with the appropriate buffer. 15 to 20 milligrams of MN-029 di-hydrochloride was weighed out into an tared HPLC vial. To the di-hydrochloride salt was added 1.00 mL of each buffer and the solution was vortexed briefly to dissolve the salt. The solutions were placed on an orbital shaker for five days. Solubility results are shown in Table 10, and the pH solubility profile for the drug in the absence of HPBCD is shown in FIG. 8.

Counter-ions that a name gives are not always drawn. Like-named read-outs stand apart in the source and are kept apart here.

As to `COC(=O)Nc1nc2ccc(Sc3ccc(NC(=O)[C@H](C)N)cc3)cc2[nH]1` [MN-029 di-hydrochloride, carbamic acid N-[6-[[4-[[(2S)-2-amino-1-oxopropyl]amino]phenyl]thio]-1H-benzimidazol-2-yl]-methyl ester di-hydrochloride], the solubility at 5 days is, setting by setting: (aqueous buffer with 15% HPBCD, aqueous with cosolvent or surfactant or cyclodextrin, pH 2 to pH 6.9, in the presence of 15% HPBCD, read-out: solubility across the tested pH range) more than 20000 µg/mL; (aqueous buffer, pH 2, aqueous buffer, Without HPBCD, buffer pH 2.0, final pH 2.10, five days shaking, read-out: MN-029 Solubility) approximately 6000 µg/mL.

The record behind these values is US8633324B2, “Denibulin di-hydrochloride” (Medicinova, Inc., priority 2011, dated 2014).
